Experimental data taken from BindingDB's records for PubMed 20033049 (Institute).

Columns and labels:
[1] = Inhibition of TEL fused BMX (unknown origin) transformed in mouse BaF3 cells
[2] = Inhibition of TEL fused BLK (unknown origin) transformed in mouse BaF3 cells

Work on `C=CC(=O)Nc1cccc(Oc2nc(Nc3ccc(N4CCN(C)CC4)cc3)ncc2Cl)c1` yielded an IC50 [1] of 0.4 nM and an IC50 [2] of 20 nM.
